“And” between values parts separate entries of the source, which are not always exact repeats. Identical values can stand only once.
Legend:
HepG2 [1] = assay: Cell cycle detection (PI flow cytometry); assay type: cell-based, Human
Description: Human resources hepatoma cell line HepG2 was provided by Cancer Hospital, Chinese Academy of Medical Sciences. […] Cells were passaged every 2 or 3 days, and all the experiments were carried out on exponentially growing cells.
[…] Cells were blown and centrifuged at 1000 RPM for 5 mins. The supernatant was removed and 1-2 mL cold phosphate-buffered saline was added, blown and centrifuged again. The precipitate was blew and then fixed with −20° C. 70% alcohol (1-2 mL), centrifuged again. Alcohol was removed, and the precipitate was washed two times with phosphate-buffered saline, blown for suspension and filtered through 100 mesh gauze filter to flow detection tube, centrifuged at 1000 RPM for 5 mins. The supernatant was abandoned and cells were stained with PI dye (50 μg/mL), vibrated and stained at least 30 mins in darkness, detected with Flow cytometry.

[2] = tested on: BGC823 human gastric adenocarcinoma; assay: Anti-BGC823 human gastric adenocarcinoma in BALB/c (nu/nu) nude mice; assay type: in vivo; conditions: for body weight of BGC823-bearing nude mice / tumor volume of BGC823-bearing nude mice: mg/kg BW: total saponins 1.5, Compound 1, combination 1 & 19, 5-FU 20, Sc; for body weight of BGC823-bearing nude mice: in g (unit assumed)
Description: Human resources gastric adenocarcinoma cell line BGC823 was cultured in the same condition as the experiment 4.
The body weight and the tumor volume were measured and recorded weekly. The tumor volume was calculated according to the formula below.
Tumors were departed and weighed. Tumor Index and inhibition rate were calculated as below: […]

HepG2 [3] = assay: MTT inhibition of tumor cells in vitro (Example 3); assay type: cell-based, Human; conditions: Homo sapiens, HepG2, 48 h, 40 μg/mL, read-out: Inhibition rate, HepG2
HepG2 human heptoma = assay: Anti-HepG2 human heptoma in BALB/c (nu/nu) nude mice; conditions: for body weight of HepG2-bearing nude mice / tumor volume of HepG2-bearing nude mice: mg/kg BW: total saponins 1.5, Compound 1, combination 1 & 39, Cytoxan 40, Sc
Description: 70 male BALB/c (nu/nu) nude mice (18-20 g, License NO. SCXK (BJ) 2009-0017, National Institutes for Food and Drug Control.) were adaptively bred for one week, and then used in the following experiment.
Human resources hepatoma cell line HepG2 was cultured in RPMI-1640 medium containing 100 U/mL Penicillin and 100 μg/mL Streptomycin with 10% fetal bovine serum and maintained at 37° C. in a humidified atmosphere (5% CO2 and […]).
70 BALB/c (nu/nu) nude mice were adaptively bred for 1 week, HepG2 cells were inoculated subcutaneously into the back of nude mice, 1×10^7 cells per mouse. […] 3 days after inoculation, mice of every therapeutic group were all given the relevant compounds or drugs for 3 weeks, and others were given isodose physiological saline.
The body weight and the size of tumor were measured and recorded weekly. The tumor volume was calculated with the formula below:
tumor volume V=π/6×a×b^2 (a, b means the transverse and longitudinal length of tumor)
At the end of administration, mice were fastened for 8 hours, weighed the fasting body weight, dropped off eyeball to collect blood, centrifuged and collected serum for next experiment. The tumors were departed and weighed. Tumor Index and inhibition rate were calculated as below:
Tumor Index=Tumor mass (mg)/body weight of animal (g)
Inhibition rate=(Average tumor massControl group−Average tumor massadministration group)/Average tumor massControl group×100%
Mice in the model group were injected with sterile water (10 ml/kg BW), Sc. All the animals were treated at 9 am for 3 weeks.
Determination of body weights: Body weights of animals were weighed and recorded once a week.
Tumor measurement: The transverse and longitudinal lengths of tumor were measured with vernier caliper weekly.
End of the experiment: After mice being administrated for 3 weeks (21 days), the experiment was terminated.

Compound: COC(=O)C1CC(O[C@H]2CC[C@]3(C)[C@H]4C=CC5[C@@H]6CC(C)(C)CC[C@]6(C(=O)OC6OC(C)C(OC(=O)/C=C/c7ccc(C)cc7)C(OC(C)=O)C6OC6CC(C)C(O)C(O)C6O)[C@H](O)C[C@@]5(C)[C@]4(C)CC[C@H]3[C@]2(C)C=O)C(OC2OC(CO)C(O)C(O)C2O)C(OC2OCC(O)C(O)C2O)C1O (stereo partly shown) [Compound (2), sinocrassuloside VII]
- cells in G0/G1 (HepG2 [1]; 20 μg/mL, 24 h): 67.26%
- cells in G2/M (HepG2 [1]; 20 μg/mL, 24 h): 15.57%
- cells in S (HepG2 [1]; 20 μg/mL, 24 h): 17.22%
- cells in G0/G1 (HepG2 [1]; 20 μg/mL, 48 h): 60.62%
- cells in G2/M (HepG2 [1]; 20 μg/mL, 48 h): 23.27%
- cells in S (HepG2 [1]; 20 μg/mL, 48 h): 16.11%
- cells in G0/G1 (HepG2 [1]; 20 μg/mL, 72 h): 59.77%
- cells in G2/M (HepG2 [1]; 20 μg/mL, 72 h): 13.96%
- cells in S (HepG2 [1]; 20 μg/mL, 72 h): 26.27%
- cells in G0/G1 (HepG2 [1]; 40 μg/mL, 24 h): 52.52%
- cells in G2/M (HepG2 [1]; 40 μg/mL, 24 h): 29.95%
- cells in S (HepG2 [1]; 40 μg/mL, 24 h): 17.53%
- cells in G0/G1 (HepG2 [1]; 40 μg/mL, 48 h): 55.08%
- cells in G2/M (HepG2 [1]; 40 μg/mL, 48 h): 32.64%
- cells in S (HepG2 [1]; 40 μg/mL, 48 h): 12.29%
- cells in G0/G1 (HepG2 [1]; 40 μg/mL, 72 h): 63.09%
- cells in G2/M (HepG2 [1]; 40 μg/mL, 72 h): 20.44%
- cells in S (HepG2 [1]; 40 μg/mL, 72 h): 16.48%
- cells in G0/G1 (HepG2 [1]; 80 μg/mL, 24 h): 55.19%
- cells in G2/M (HepG2 [1]; 80 μg/mL, 24 h): 21.20%
- cells in S (HepG2 [1]; 80 μg/mL, 24 h): 20.39±2.56% and 20.39%
- cells in G0/G1 (HepG2 [1]; 80 μg/mL, 48 h): 47.28%
- cells in G2/M (HepG2 [1]; 80 μg/mL, 48 h): 21.77%
- cells in S (HepG2 [1]; 80 μg/mL, 48 h): 30.95±5.84% and 30.95%
- cells in G0/G1 (HepG2 [1]; 80 μg/mL, 72 h): 49.28%
- cells in G2/M (HepG2 [1]; 80 μg/mL, 72 h): 10.39%
- cells in S (HepG2 [1]; 80 μg/mL, 72 h): 40.34±12.32% and 40.34%
- body weight of BGC823-bearing nude mice ([2]; 0 W): 20.10 ± 1.10
- tumor volume of BGC823-bearing nude mice ([2]; 1 W): 796.43 ± 563.35
- tumor volume of BGC823-bearing nude mice ([2]; 2 W): 1186.34 ± 625.68
- body weight of BGC823-bearing nude mice ([2]; 2 W): 23.00 ± 0.82
- tumor volume of BGC823-bearing nude mice ([2]; 3 W): 1654.23 ± 891.57
- body weight of BGC823-bearing nude mice ([2]; 3 W): 23.40 ± 1.58
- Inhibition rate ([2]; BGC823-bearing nude mice, after 3 weeks, from average tumor mass vs model): 79.63%
- inhibition at 40 µg/mL (HepG2 [3]): > 90%
- body weight of HepG2-bearing nude mice (HepG2 human heptoma; 0 W): 19.50 ± 0.53
- body weight of HepG2-bearing nude mice (HepG2 human heptoma; 1 W): 21.60 ± 0.84
- tumor volume of HepG2-bearing nude mice (HepG2 human heptoma; 1 W): 564.84 ± 474.95
- body weight of HepG2-bearing nude mice (HepG2 human heptoma; 2 W): 22.40 ± 1.17
- tumor volume of HepG2-bearing nude mice (HepG2 human heptoma; 2 W): 841.36 ± 577.72
- body weight of HepG2-bearing nude mice (HepG2 human heptoma; 3 W): 22.70 ± 0.95
- tumor volume of HepG2-bearing nude mice (HepG2 human heptoma; 3 W): 911.76 ± 460.22
- Inhibition rate (HepG2 human heptoma; HepG2-bearing nude mice, after 3 weeks, from average tumor mass vs model): 87.42% and 87.32%
